Values joined by “and” are separate entries in the source; they are usually repeats but may differ in a detail not shown here. Equal values may be shown once. Inconclusive results and toxic doses are left out.
System: L1210 leukemia ip in BDF1 mice, survival T/C
Experiment: NCI In Vivo Anticancer Drug Screen. Data for tumor model L1210 Leukemia (intraperitoneal) in B6D2F1 (BDF1) mice
Details: endpoint: mean survival time, higher = longer survival
Method in brief: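 In this screen, tumor-bearing mice given compound are compared to those given vehicle, and their survival values are reported as a treated-to-control quotient.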

[1] = dose: 100.0 mg/kg/injection, schedule: Q04DX003 (ip), vehicle: Klucel (hydroxypropylcellulose) (HPC)
[2] = dose: 200.0 mg/kg/injection, schedule: Q04DX003 (ip), vehicle: Klucel (hydroxypropylcellulose) (HPC)
[3] = dose: 400.0 mg/kg/injection, schedule: Q04DX003 (ip), vehicle: Klucel (hydroxypropylcellulose) (HPC)
[4] = dose: 100.0 mg/kg/injection, schedule: Q01DX001 (ip), vehicle: carboxymethylcellulose (CMC)
[5] = dose: 100.0 mg/kg/injection, schedule: Q01DX001 (ip), vehicle: saline
[6] = dose: 100.0 mg/kg/injection, schedule: Q04DX002 (ip), vehicle: saline with Tween-80
[7] = dose: 100.0 mg/kg/injection, schedule: Q04DX003 (ip), vehicle: saline with Tween-80
[8] = dose: 200.0 mg/kg/injection, schedule: Q01DX001 (ip), vehicle: saline
[9] = dose: 200.0 mg/kg/injection, schedule: Q04DX002 (ip), vehicle: saline with Tween-80
[10] = dose: 200.0 mg/kg/injection, schedule: Q04DX003 (ip), vehicle: saline with Tween-80
[11] = dose: 400.0 mg/kg/injection, schedule: Q04DX002 (ip), vehicle: saline with Tween-80

## CC(CCc1cccc2ccccc12)(C(=O)O)C(=O)O
dose: 100.0 mg/kg/injection, schedule: Q01DX009 (ip), vehicle: saline sonified
  T/C: 92 % of control
[1]
  T/C: 104 % of control
dose: 200.0 mg/kg/injection, schedule: Q01DX009 (ip), vehicle: saline sonified
  T/C: 104 % of control
[2]
  T/C: 100 % of control
[3]
  T/C: 94 % of control

## O=C(O)C(Cl)(Br)C(Cl)c1ccccc1 (stereo not given)
dose: 100.0 mg/kg/injection, schedule: Q01DX009 (ip), vehicle: saline with Tween-80
  T/C: 93 % of control
dose: 200.0 mg/kg/injection, schedule: Q01DX009 (ip), vehicle: saline with Tween-80
  T/C: 91 % of control
dose: 400.0 mg/kg/injection, schedule: Q01DX009 (ip), vehicle: saline with Tween-80
  T/C: 95 % of control

## NC(=O)c1cc(Cl)nc(Cl)n1
dose: 25.0 mg/kg/injection, schedule: Q01DX Z (ip), vehicle: methylcellulose (MC)
  T/C: 98 % of control
dose: 50.0 mg/kg/injection, schedule: Q01DX Z (ip), vehicle: methylcellulose (MC)
  T/C: 96 % of control

## CCOC(=O)C1=C(OCOC)CCC(C(C)(C)C)C1 (stereo not given)
dose: 100.0 mg/kg/injection, schedule: Q01DX001 (ip), vehicle: Klucel (hydroxypropylcellulose) (HPC)
  T/C: 92 % of control
dose: 200.0 mg/kg/injection, schedule: Q01DX001 (ip), vehicle: Klucel (hydroxypropylcellulose) (HPC)
  T/C: 98 % of control

## Nc1cccc2c1C(=O)c1c(c(O)c3ccccc3c1O)C2=O
[1]
  T/C: 100 % of control
[2]
  T/C: 96 % of control
[3]
  T/C: 96 % of control

## CCN=C(NCC)Nc1ccc(NC(=O)c2ccc(C(=O)Nc3ccc(NC(=NCC)NCC)cc3)cc2)cc1
dose: 1.87 mg/kg/injection, schedule: Q01DX Z (ip), vehicle: water
  T/C: 93 % of control
dose: 3.75 mg/kg/injection, schedule: Q01DX Z (ip), vehicle: water
  T/C: 97 % of control
dose: 7.5 mg/kg/injection, schedule: Q01DX Z (ip), vehicle: water
  T/C: 109 % of control
dose: 8.0 mg/kg/injection, schedule: Q01DX009 (ip), vehicle: carboxymethylcellulose (CMC)
  T/C: 156 % of control
dose: 16.0 mg/kg/injection, schedule: Q01DX009 (ip), vehicle: carboxymethylcellulose (CMC)
  T/C: 167 % of control
dose: 20.0 mg/kg/injection, schedule: Q01DX001 (ip), vehicle: carboxymethylcellulose (CMC)
  T/C: 103 % of control
dose: 21.0 mg/kg/injection, schedule: Q01DX001 (ip), vehicle: other
  T/C: 103 % of control
dose: 31.0 mg/kg/injection, schedule: Q01DX001 (ip), vehicle: other
  T/C: 105 % of control
dose: 33.0 mg/kg/injection, schedule: Q01DX009 (ip), vehicle: other
  T/C: 190 % of control
dose: 40.0 mg/kg/injection, schedule: Q01DX001 (ip), vehicle: carboxymethylcellulose (CMC)
  T/C: 104 % of control
dose: 47.0 mg/kg/injection, schedule: Q01DX001 (ip), vehicle: other
  T/C: 116 % of control
dose: 50.0 mg/kg/injection, schedule: Q01DX009 (ip), vehicle: other
  T/C: 181 % of control
dose: 70.0 mg/kg/injection, schedule: Q01DX001 (ip), vehicle: other
  T/C: 114 % of control
dose: 75.0 mg/kg/injection, schedule: Q01DX001 (ip), vehicle: other
  T/C: 118 % of control
dose: 75.0 mg/kg/injection, schedule: Q01DX009 (ip), vehicle: other
  T/C: 107 % of control
dose: 80.0 mg/kg/injection, schedule: Q01DX001 (ip), vehicle: carboxymethylcellulose (CMC)
  T/C: 119 % of control
[4]
  T/C: 121 % of control
dose: 106.0 mg/kg/injection, schedule: Q01DX001 (ip), vehicle: other
  T/C: 114 % of control
dose: 150.0 mg/kg/injection, schedule: Q01DX001 (ip), vehicle: other
  T/C: 153 % of control
dose: 160.0 mg/kg/injection, schedule: Q01DX001 (ip), vehicle: carboxymethylcellulose (CMC)
  T/C: 167 % of control and 196 % of control
dose: 160.0 mg/kg/injection, schedule: Q01DX001 (ip), vehicle: other
  T/C: 112 % of control
dose: 240.0 mg/kg/injection, schedule: Q01DX001 (ip), vehicle: other
  T/C: 227 % of control
dose: 300.0 mg/kg/injection, schedule: Q01DX001 (ip), vehicle: other
  T/C: 212 % of control

## CC(=O)NC1C(NC(=O)C(CC(=O)O)NC(=O)OCc2ccccc2)OC(COC(C)=O)C(OC(C)=O)C1OC(C)=O (stereo not given)
dose: 50.0 mg/kg/injection, schedule: Q04DX002 (ip), vehicle: Klucel (hydroxypropylcellulose) (HPC)
  T/C: 94 % of control
dose: 100.0 mg/kg/injection, schedule: Q04DX002 (ip), vehicle: Klucel (hydroxypropylcellulose) (HPC)
  T/C: 91 % of control

## CC1OC(n2cnc3c(N)ncnc32)C(O)C1O (stereo not given)
dose: 50.0 mg/kg/injection, schedule: Q01DX001 (sc), vehicle: carboxymethylcellulose (CMC)
  T/C: 104 % of control
dose: 100.0 mg/kg/injection, schedule: Q01DX001 (sc), vehicle: carboxymethylcellulose (CMC)
  T/C: 90 % of control
dose: 200.0 mg/kg/injection, schedule: Q01DX001 (sc), vehicle: carboxymethylcellulose (CMC)
  T/C: 93 % of control
dose: 400.0 mg/kg/injection, schedule: Q01DX001 (sc), vehicle: carboxymethylcellulose (CMC)
  T/C: 106 % of control

## Cc1ccc(Cl)cc1NC(=O)N1C(C)CCCC1C (stereo not given)
dose: 25.0 mg/kg/injection, schedule: Q01DX009 (ip), vehicle: saline with Tween-80
  T/C: 94 % of control and 110 % of control
dose: 50.0 mg/kg/injection, schedule: Q01DX009 (ip), vehicle: saline with Tween-80
  T/C: 106 % of control and 108 % of control
dose: 50.0 mg/kg/injection, schedule: Q04DX003 (ip), vehicle: saline with Tween-80
  T/C: 100 % of control
dose: 100.0 mg/kg/injection, schedule: Q01DX001 (ip), vehicle: saline with Tween-80
  T/C: 101 % of control and 118 % of control
[5]
  T/C: 102 % of control
[6]
  T/C: 95 % of control and 89 % of control
[7]
  T/C: 104 % of control
dose: 200.0 mg/kg/injection, schedule: Q01DX001 (ip), vehicle: saline with Tween-80
  T/C: 101 % of control and 110 % of control
[8]
  T/C: 108 % of control
[9]
  T/C: 93 % of control and 106 % of control
[10]
  T/C: 109 % of control
dose: 400.0 mg/kg/injection, schedule: Q01DX001 (ip), vehicle: saline with Tween-80
  T/C: 101 % of control
[11]
  T/C: 102 % of control

## Cc1ccc(/C(C#N)=C/C2CCC(N(C)C)CC2)cc1 (stereo not given)
[6]
  T/C: 87 % of control
[9]
  T/C: 93 % of control
[11]
  T/C: 87 % of control

## COc1cccc(N=Nc2ccc(N(C)C)cc2)c1
[5]
  T/C: 95 % of control
[8]
  T/C: 95 % of control
dose: 400.0 mg/kg/injection, schedule: Q01DX001 (ip), vehicle: saline
  T/C: 103 % of control

## CCNC(=O)C1C2C=CC(CC2)C1C(=O)NCC (stereo not given)
[7]
  T/C: 87 % of control
[10]
  T/C: 96 % of control
dose: 400.0 mg/kg/injection, schedule: Q04DX003 (ip), vehicle: saline with Tween-80
  T/C: 96 % of control

## CCCC(=O)c1cc(C)ccc1OC
[4]
  T/C: 103 % of control
dose: 200.0 mg/kg/injection, schedule: Q01DX001 (ip), vehicle: carboxymethylcellulose (CMC)
  T/C: 106 % of control
dose: 400.0 mg/kg/injection, schedule: Q01DX001 (ip), vehicle: carboxymethylcellulose (CMC)
  T/C: 106 % of control

## CC#CC(=O)c1ccccc1
dose: 7.5 mg/kg/injection, schedule: Q04DX003 (ip), vehicle: saline
  T/C: 97 % of control
dose: 15.0 mg/kg/injection, schedule: Q04DX003 (ip), vehicle: saline
  T/C: 94 % of control
dose: 30.0 mg/kg/injection, schedule: Q04DX003 (ip), vehicle: saline
  T/C: 95 % of control

## CCCCN(CC)C(=S)[S-].CCCCN(CC)C(=S)[S-].[Zn]
dose: 2.5 mg/kg/injection, schedule: Q01DX009 (ip), vehicle: saline
  T/C: 100 % of control
dose: 5.0 mg/kg/injection, schedule: Q01DX009 (ip), vehicle: saline
  T/C: 95 % of control
dose: 10.0 mg/kg/injection, schedule: Q01DX001 (ip), vehicle: saline
  T/C: 98 % of control
dose: 10.0 mg/kg/injection, schedule: Q01DX009 (ip), vehicle: saline
  T/C: 95 % of control
dose: 10.0 mg/kg/injection, schedule: Q04DX003 (ip), vehicle: saline
  T/C: 105 % of control
dose: 20.0 mg/kg/injection, schedule: Q01DX001 (ip), vehicle: saline
  T/C: 89 % of control
dose: 20.0 mg/kg/injection, schedule: Q04DX003 (ip), vehicle: saline
  T/C: 103 % of control
dose: 40.0 mg/kg/injection, schedule: Q01DX001 (ip), vehicle: saline
  T/C: 91 % of control

## O=C1Nc2ccccc2C1=Nc1ccc(S(=O)(=O)Nc2nccs2)cc1
dose: 75.0 mg/kg/injection, schedule: Q01DX001 (ip), vehicle: saline
  T/C: 89 % of control
dose: 150.0 mg/kg/injection, schedule: Q01DX001 (ip), vehicle: saline
  T/C: 86 % of control
dose: 300.0 mg/kg/injection, schedule: Q01DX001 (ip), vehicle: saline
  T/C: 86 % of control

## OCCNc1ccccc1
[5]
  T/C: 93 % of control
[8]
  T/C: 101 % of control

Source: PubChem BioAssay AID248 (DTP/NCI, 2004)
